Assay results as given in patent US20260055083A1, “APOL1 INHIBITORS AND METHODS OF USE” (Maze Therapeutics, Inc., priority 2022, published 2026).

Legend:
APOL1 G2 [1] = molecular target: T1, APOL1 G2 (Homo sapiens, UniProt O14791, DEL388-389); experiment: APOL1 G2 HEK293 rescue of cell death caused by overexpression of APOL1 (CellTiter-Glo); assay type: cell-based; settings: HEK293/T-REx APOL1 G2 clone #2, doxycycline induction, 17 hours, CellTiter-Glo luminescence; reversal of cell death; geometric mean of at least 2 assay runs
T1 construct: expressed in transfected cells; host or cells: HEK293/T-REx APOL1 G2 clone #2, doxycycline-inducible
T1 sequence (O14791 with tags, fused parts or gaps DEL388-389): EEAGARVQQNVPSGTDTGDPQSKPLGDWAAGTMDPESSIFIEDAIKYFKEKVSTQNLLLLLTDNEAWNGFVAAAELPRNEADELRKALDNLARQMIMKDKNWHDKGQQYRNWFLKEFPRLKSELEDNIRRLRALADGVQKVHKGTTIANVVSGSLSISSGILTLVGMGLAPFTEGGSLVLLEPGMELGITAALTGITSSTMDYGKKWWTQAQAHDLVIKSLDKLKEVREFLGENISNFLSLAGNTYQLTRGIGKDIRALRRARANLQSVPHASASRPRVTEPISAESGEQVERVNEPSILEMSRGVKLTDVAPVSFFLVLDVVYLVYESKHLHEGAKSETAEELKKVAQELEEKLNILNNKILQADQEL
Description: A HEK293 clonal cell line overexpressing APOL1 G2 (HEK293/T-REx APOL1 G2/clone #2) was maintained in 1×DMEM-GlutaMax (Gibco, 10569-010) media with 10% tetracycline-free FBS (Takara Bio USA, 631101), 5 μg/mL Blasticidin (Gibco, A1113903), and 100 μg/mL Zeocin (Invitrogen, R25001) in T75 flasks. In preparation for the assay, this media was aspirated and 2 mL of prewarmed TrypLE Express (Gibco, 12605-010) was added to a flask to detach cells. The flask was then incubated (humidified, 37° C. with 5% CO2) for 3-5 minutes. Afterwards, 8 mL of prewarmed cell assay media (1×DMEM-GlutaMax media with 10% tetracycline-free FBS) was added to the trypsinized cells. The suspension was gently mixed, and cells were counted using a Countess Cell Counting Chamber (Invitrogen). The suspension was diluted using cell assay media to generate a working stock solution (166,667 cells/mL). Using a MultiDrop Combi (Thermo Electron Corp), 30 μL (final cell density=5,000 cells/well) of the working stock solution was dispensed into each well of white 384-well assay ready plates (Nunc™, 164610) containing 6 ng/mL doxycycline, to induce APOL1 expression, and compound. All compounds were plated in a duplicate 8-point dilution series that consisted of 3-fold stepwise dilutions (0.5% DMSO final). Assay plates were incubated (humidified, 37° C. with 5% CO2) for 17 hours. After the incubation, the plates were equilibrated at room temperature for 1 hour. Next, 15 μl of CellTiter-Glo® reagent (Promega, G7570) was added to each well using a MultiDrop Combi. Plates were placed on an orbital shaker (500 rpm) for 5 minutes to induce cell lysis and then incubated at room temperature for 10 minutes. Luminescence was measured on an Envision plate reader. Collaborative Drug Discovery software was utilized for graphing data. Plots were generated using a four parameter logistic curve fit.
Table B2 below provides the results from this experiment. Unless otherwise specified, EC50 values are reported as the geometric mean of at least 2 assay runs on separate days. Each run represents the average of a technical replicate, where each compound was assayed twice in the same plate. A superscript t symbol indicates a value from the average of a technical replicate from a single assay run, where each compound was assayed twice in the same plate. Compounds in Table B2 are referred to by the corresponding Compound Number in Table 1, which is also referred to in the synthetic examples. When one or more of the numbered compounds are identified by stereochemistry (for example, (R)- or (S)-), the specific stereoisomer for which data is provided in Table B2 may be identified by the elution order of such compound as described in the synthetic examples. To illustrate, Compound 2 is the first-eluting enantiomer of step 4 of Example 1 and Compound 3 is the second-eluting enantiomer of step 4 of Example 1. Further, by way of illustration, Compound 27 is the first-eluting enantiomeric mixture in step 4 of Example 7 and Compound 28 is the second-eluting enantiomeric mixture in step 4 of Example 7. Then, Compound 27 is separated into Compound 29 (the first-eluting enantiomer) and Compound 30 (the second-eluting enantiomer) in Example 8, and Compound 28 is separated into Compound 31 (the first-eluting enantiomer) and Compound 32 (the second-eluting enantiomer) in Example 8. Absolute stereochemistry of such compounds may be identified by methods known in the art.
Rescue EC50 values reported in Table B2 below represent the half-maximal effective concentration for reversal of cell death caused by overexpression of APOL1.

APOL1 G2 [2] = molecular target: T1, APOL1 G2; experiment: APOL1 G2 FLIPR calcium influx assay (HEK T-REx/GCaMP6f/APOL1 G2 K6.3 cells); assay type: cell-based; settings: HEK293 clone expressing GCaMP6f, doxycycline-induced APOL1 G2; prevention of calcium influx; geometric mean of at least 2 assay runs
Description: A HEK293 clonal cell line was generated to stably express GCaMP6f, a genetically encoded calcium indicator, and inducibly express APOL1 G2 (HEK T-REx/GCaMP6f/APOL1 G2 K6.3). Cells were maintained in the following standard complete medium: DMEM with 4.5 g/L glucose and sodium pyruvate (BioWhittaker, Lonza, BE12-614F), supplemented with 10% FBS Performance Plus (Gibco, 16000044), 1% penicillin-streptomycin (BioWhittaker, DE17-602E), 2 mM ultraglutamine-1 (BioWhittaker cat. BE 17-605/U1), 50 μg/mL Zeocin (InvivoGen, ant-zn), 2.5 μg/mL Blasticidin (InvivoGen, ant-bl-5), and 25 μg/mL Hygromycin (InvivoGen, ant-hg). Standard propagation conditions consisted of plating 9×10^6, 4×10^6, 2×10^6 cells in a T225 flasks to be processed after 2, 3, or 4 days, respectively.
A source plate was generated containing 20 serially diluted compounds in DMSO (duplicate 8-point dose response). Next, 0.8 μL of compounds were transferred from the source plate to a destination plate prefilled with 79.2 μL of Ca^2+ free Tyrode's buffer (130 mM NaCl, 5 mM KCl, 1 mM MgCl2, 5 mM NaHCO3, 20 mM HEPES at pH 7.4). The destination plate was placed on a plate shaker (5 seconds at 2000 rpm) to mix. […] All transfer and mixing steps were conducted with an CyBi®-Well dispenser.
Cells were split by gently washing with DPBS (Euroclone, ECB4004L), followed by a 5-minute incubation (humidified, 37° C. with 5% CO2) with trypsin-EDTA solution (Euroclone, ECB3052D). Detached cells were diluted with standard complete medium without selective agents, counted, and plated in a 384 MTP microplate (GR4332CPL, Twin Helix) (10,000 cells/well in 25 μl/well) using a MATRIX WellMate dispenser. Plates were placed into a humidified incubator (37° C. with 5% CO2) overnight. The following day, 20 μL of doxycycline (Sigma, D9891) at 20 ng/mL in standard complete medium was added to cells with a CyBi®Drop dispenser to induce APOL1 G2 expression. After a 6-hour incubation (humidified, 37° C. with 5% CO2), cells were washed 3 times with Ca^2+ free Tyrode's Buffer (130 mM NaCl, 5 mM KCl, 1 mM MgCl2, 5 mM NaHCO3, 20 mM HEPES at pH 7.4) using a BIOTEK Microplate washer, such that 10 μL of buffer remained in each well after the final wash. Assay plates were then stored at room temperature for 10 minutes. Next, 10 μL of diluted compounds were transferred to the assay plate from the 2× compound plate using a CyBi®-Well dispenser. Compound incubation was then carried out at room temperature for 10 minutes. The assay plate was transferred to the […] and 20 μL of 10 mM Ca^2+ (final concentration=5 mM) Tyrode's buffer was injected.
Table B1 below summarizes the data from this experiment. Unless otherwise specified, AC50 and values are reported as the geometric mean of at least 2 assay runs on separate days. Each run represents the average of a technical replicate, where each compound was assayed twice in the same plate. A superscript t symbol indicates a value from the average of a technical replicate from a single assay run, where each compound was assayed twice in the same plate.
The AC50 values in Table B1 below reflect the compound's ability to prevent calcium influx by inhibiting APOL1. […] Compounds in Table B1 are referred to by the corresponding Compound Number in Table 1, which is also referred to in the synthetic examples. When one or more of the numbered compounds are identified by stereochemistry (for example, (R)- or (S)-), the specific stereoisomer for which data is provided in Table B1 may be identified by the elution order of such compound as described in the synthetic examples. To illustrate, Compound 2 is the first-eluting enantiomer of step 4 of Example 1 and Compound 3 is the second-eluting enantiomer of step 4 of Example 1. Further, by way of illustration, Compound 27 is the first-eluting enantiomeric mixture in step 4 of Example 7 and Compound 28 is the second-eluting enantiomeric mixture in step 4 of Example 7. […]

Row | AC50 (APOL1 G2 [2]) [nM] | Structure (SMILES) | EC50 (APOL1 G2 [1]) [nM]
1 | 1510 | C[C@@H]1CN(CC(CO)c2cc(Cl)cc(C#N)c2)C[C@H]1COc1ccc(S(C)(=O)=O)cc1 (single isomer, unassigned) [Compound 128, 3-chloro-5-[(2S or 2R)-1-hydroxy-3-[(3S,4S)-3-[(4-methanesulfonylphenoxy)methyl]-4-methylpyrrolidin-1-yl]propan-2-yl]benzonitrile] | 711
2 | 1020 | CC(Cc1cc(Cl)cc(C#N)c1)N1C[C@@H](COc2ccc(S(C)(=O)=O)cc2)C[C@H]1C (single isomer, unassigned) [Compound 10, 3-chloro-5-[(2S or 2R)-2-[(2R,4S)-4-[(4-methanesulfonylphenoxy)methyl]-2-methylpyrrolidin-1-yl]propyl]benzonitrile] | 744
3 | 114 | C[C@@H]1CN(CCc2cc(Cl)cc(C#N)c2)C[C@H]1COc1ccc(C2(S(C)(=O)=O)COC2)cc1 [Compound 78, 3-chloro-5-{2-[(3S,4S)-3-{[4-(3-methanesulfonyloxetan-3-yl)phenoxy]methyl}-4-methylpyrrolidin-1-yl]ethyl}benzonitrile] | 25.8
4 | 290 | C[C@@H]1CN(CCc2cc(Cl)cc(C#N)c2)C[C@H]1COc1ccc(S(=O)(=O)C2(C)COC2)cc1 [Compound 13, 3-chloro-5-{2-[(3S,4S)-3-methyl-4-({4-[(3-methyloxetan-3-yl)sulfonyl]phenoxy}methyl)pyrrolidin-1-yl]ethyl}benzonitrile] | 41.4
5 | 412 | CC(Cc1cc(Cl)cc(C#N)c1)N1C[C@@H](COc2ccc(S(C)(=O)=O)cc2)[C@H](C)C1 (single isomer, unassigned) [Compound 18, 3-chloro-5-[(2S or 2R)-2-[(3S,4S)-3-[(4-methanesulfonylphenoxy)methyl]-4-methylpyrrolidin-1-yl]propyl]benzonitrile] | 262
6 | 222 | C[C@@H]1C[C@H](COc2ccc(S(C)(=O)=O)cc2)CN1C1CCc2ccc(C#N)cc2C1 (single isomer, unassigned) [Compound 137, (7R or 7S)-7-[(2R,4S)-4-[(4-methanesulfonylphenoxy)methyl]-2-methylpyrrolidin-1-yl]-5,6,7,8-tetrahydronaphthalene-2-carbonitrile] | 35.8
7 | 404 | COC(=O)CCCS(=O)(=O)c1ccc(OC[C@@H]2CN(CCc3cc(Cl)cc(C#N)c3)C[C@H]2C)cc1 [Compound 80, methyl 4-(4-{[(3S,4S)-1-[2-(3-chloro-5-cyanophenyl)ethyl]-4-methylpyrrolidin-3-yl]methoxy}benzenesulfonyl)butanoate] | 202

Further lines, the compound ahead of its results:

Row | Structure (SMILES) | AC50 (APOL1 G2 [2]) [nM] | EC50 (APOL1 G2 [1]) [nM]
8 | C[C@@H]1CN(CCc2cc(C#N)cc(C#N)c2)C[C@H]1COc1ccc(S(C)(=O)=O)nc1 [Compound 74, 5-{2-[(3S,4S)-3-{[(6-methanesulfonylpyridin-3-yl)oxy]methyl}-4-methylpyrrolidin-1-yl]ethyl}benzene-1,3-dicarbonitrile] | 479 | 665
9 | C[C@@H]1C[C@H](COc2ccc(S(=O)(=O)CCCS(C)(=O)=O)cc2)CN1C1CCc2c(C#N)cc(Cl)cc2C1 (single isomer, unassigned) [Compound 45, (6S or 6R)-3-chloro-6-[(2R,4S)-4-{[4-(3-methanesulfonylpropanesulfonyl)phenoxy]methyl}-2-methylpyrrolidin-1-yl]-5,6,7,8-tetrahydronaphthalene-1-carbonitrile] | 998 | 300
10 | C[C@@H]1CN(CCc2cccc(C#N)c2)C[C@H]1COc1cnc(S(C)(=O)=O)cn1 [Compound 20, 3-{2-[(3S,4S)-3-{[(5-methanesulfonylpyrazin-2-yl)oxy]methyl}-4-methylpyrrolidin-1-yl]ethyl}benzonitrile] | 776 | 1120
11 | CN=S(C)(=O)c1ccc(OC[C@@H]2CN(CCc3cccc(C#N)c3)C[C@H]2C)cn1 (stereo partly drawn) [Compound 71, 3-{2-[(3S,4S)-3-methyl-4-[({6-[methyl(methylimino)oxo-λ^6-sulfanyl]pyridin-3-yl}oxy)methyl]pyrrolidin-1-yl]ethyl}benzonitrile] | 492 | 287
